Laboratory results as given in ChEMBL document CHEMBL1201861, “Genomics of Drug Sensitity in Cancer screening data, Wellcome Trust Sanger Institute”.

Legend:
Assay in all cases: cells
Assay type in all cases: functional, cell-based
Details in all cases: Homo sapiens
COLO-668 = test system: COLO-668
Description: SANGER: Inhibition of human COLO-668 cell growth in a cell viability assay.

CGTH-W-1 = test system: CGTH-W-1;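 note: growth inhibition of human CGTH-W-1 cells measured by cell viability assay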
Description: SANGER: Inhibition of human CGTH-W-1 cell growth in a cell viability assay.

MFM-223 = test system: MFM-223
Description: SANGER: Inhibition of human MFM-223 cell growth in a cell viability assay.

MC116 = test system: MC116;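 note: growth inhibition of MC116 cells, read out with a cell viability assay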
Description: SANGER: Inhibition of human MC116 cell growth in a cell viability assay.

NCI-H69 = test system: NCI-H69;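 note: growth inhibition of the cell line, read out with a cell viability assay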
Description: SANGER: Inhibition of human NCI-H69 cell growth in a cell viability assay.

NCI-H1395 = test system: NCI-H1395;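 note: cell viability assay read-out quantifying reduced proliferation of human NCI-H1395 cells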
Description: SANGER: Inhibition of human NCI-H1395 cell growth in a cell viability assay.

RKO = test system: RKO;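 note: growth inhibition of human RKO cells, read out with a cell viability assay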
Description: SANGER: Inhibition of human RKO cell growth in a cell viability assay.

HCC2218 = test system: HCC2218;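 note: cell viability assay read-out, with IC50 given as the concentration that inhibits growth of the cell line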
Description: SANGER: Inhibition of human HCC2218 cell growth in a cell viability assay.

CTB-1 = test system: CTB-1
Description: SANGER: Inhibition of human CTB-1 cell growth in a cell viability assay.

CAS-1 = test system: CAS-1;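 note: growth inhibition of CAS-1 cells, measured with a cell viability assay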
Description: SANGER: Inhibition of human CAS-1 cell growth in a cell viability assay.

A388 = test system: A388;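 note: growth inhibition of human A388 cells, read out with a cell viability assay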
Description: SANGER: Inhibition of human A388 cell growth in a cell viability assay.

DMS-114 = test system: DMS-114
NEC8 = test system: NEC8;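 note: growth inhibition of human NEC8 cells, read out by a cell viability assay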
Description: SANGER: Inhibition of human NEC8 cell growth in a cell viability assay.

Mo = test system: Mo
Description: SANGER: Inhibition of human Mo-T cell growth in a cell viability assay.

NB13 = test system: NB13;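 note: cell viability readout measuring growth inhibition of human NB13 cells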
Description: SANGER: Inhibition of human NB13 cell growth in a cell viability assay.

TE-12 = test system: TE-12;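 note: growth inhibition of TE-12 cells, read out by a cell viability assay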
Description: SANGER: Inhibition of human TE-12 cell growth in a cell viability assay.

A101D = test system: A101D;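 note: growth inhibition of the cell line, measured with a viability assay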
Description: SANGER: Inhibition of human A101D cell growth in a cell viability assay.

HDLM-2 = test system: HDLM-2;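 note: cell viability assay measuring suppression of HDLM-2 proliferation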
Description: SANGER: Inhibition of human HDLM-2 cell growth in a cell viability assay.

NB10 = test system: NB10;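 note: growth inhibition of NB10 cells, read out by a cell viability assay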
Description: SANGER: Inhibition of human NB10 cell growth in a cell viability assay.

SK-N-DZ = test system: SK-N-DZ;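 note: growth inhibition of the cancer cell line, read out through a viability assay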
Description: SANGER: Inhibition of human SK-N-DZ cell growth in a cell viability assay.

U-266 = test system: U-266
Description: SANGER: Inhibition of human U-266 cell growth in a cell viability assay.

HOP-62 = test system: HOP-62;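 note: cell growth inhibition determined with a viability assay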
Description: SANGER: Inhibition of human HOP-62 cell growth in a cell viability assay.

SF-126 = test system: SF-126;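 note: growth inhibition of human SF126 cells, read out with a cell viability assay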
Description: SANGER: Inhibition of human SF126 cell growth in a cell viability assay.

ALL-PO = test system: ALL-PO;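 note: growth inhibition of ALL-PO cells, read out by a cell viability assay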
Description: SANGER: Inhibition of human ALL-PO cell growth in a cell viability assay.

NCI-H1650 = test system: NCI-H1650;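 note: growth inhibition of human NCI-H1650 cells measured by a cell viability assay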
Description: SANGER: Inhibition of human NCI-H1650 cell growth in a cell viability assay.

GB-1 = test system: GB-1;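 note: growth of GB-1 cells judged by a viability assay, IC50 marks the concentration inhibiting growth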
Description: SANGER: Inhibition of human GB-1 cell growth in a cell viability assay.

COLO-800 = test system: COLO-800;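 note: growth inhibition of COLO-800 cells, read out with a cell viability assay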
Description: SANGER: Inhibition of human COLO-800 cell growth in a cell viability assay.

GR-ST = test system: GR-ST
Description: SANGER: Inhibition of human GR-ST cell growth in a cell viability assay.

AM-38 = test system: AM-38;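 note: growth inhibition of AM-38 cells of human origin, read out by a cell viability assay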
Description: SANGER: Inhibition of human AM-38 cell growth in a cell viability assay.

LS-1034 = test system: LS-1034
Description: SANGER: Inhibition of human LS-1034 cell growth in a cell viability assay.

RH-1 = test system: RH-1;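 note: growth inhibition of human RH-1 cells, read out with a cell viability assay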
Description: SANGER: Inhibition of human RH-1 cell growth in a cell viability assay.

LB1047-RCC = test system: LB1047-RCC;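 note: inhibition of cell growth, determined with a cell viability assay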
Description: SANGER: Inhibition of human LB1047-RCC cell growth in a cell viability assay.

KGN = test system: KGN;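 note: growth inhibition of KGN cells, read out with a cell viability assay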
Description: SANGER: Inhibition of human KGN cell growth in a cell viability assay.

CTV-1 = test system: CTV-1;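 note: growth inhibition of the cell line, read out with a cell viability assay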
Description: SANGER: Inhibition of human CTV-1 cell growth in a cell viability assay.

TGBC1TKB = test system: TGBC1TKB;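 note: growth inhibition of TGBC1TKB cells, read out by a cell viability assay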
Description: SANGER: Inhibition of human TGBC1TKB cell growth in a cell viability assay.

NCI-H226 = test system: NCI-H226;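 note: cell viability read-out used to gauge growth inhibition of the cells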
Description: SANGER: Inhibition of human NCI-H226 cell growth in a cell viability assay.

MSTO-211H = test system: MSTO-211H
Description: SANGER: Inhibition of human MSTO-211H cell growth in a cell viability assay.

KNS-42 = test system: KNS-42;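 note: growth inhibition of KNS-42 cells, read out with a cell viability assay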
Description: SANGER: Inhibition of human KNS-42 cell growth in a cell viability assay.

SF-539 = test system: SF-539;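 note: Read-out is a cell viability assay, with IC50 reflecting inhibition of cell growth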
Description: SANGER: Inhibition of human SF539 cell growth in a cell viability assay.

KY821 = test system: KY821;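 note: growth inhibition of human KY821 cells, read out by a cell viability assay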
Description: SANGER: Inhibition of human KY821 cell growth in a cell viability assay.

NCI-H82 = test system: NCI-H82;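 note: growth inhibition of NCI-H82 cells, measured with a cell viability readout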
Description: SANGER: Inhibition of human NCI-H82 cell growth in a cell viability assay.

COLO-320-HSR = test system: COLO-320-HSR;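 note: growth inhibition of COLO-320-HSR cells, determined with a cell viability assay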
Description: SANGER: Inhibition of human COLO-320-HSR cell growth in a cell viability assay.

LAMA-84 = test system: LAMA-84;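 note: growth inhibition of LAMA-84 cells, read out with a cell viability assay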
Description: SANGER: Inhibition of human LAMA-84 cell growth in a cell viability assay.

ES1 = test system: ES1;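 note: growth inhibition of ES1 cells, read out with a cell viability assay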
Description: SANGER: Inhibition of human ES1 cell growth in a cell viability assay.

EOL1 = test system: EOL1;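 note: growth inhibition of EoL-1 cells, read out by a cell viability assay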
Description: SANGER: Inhibition of human EoL-1-cell cell growth in a cell viability assay.

DSH1 = test system: DSH1;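 note: growth inhibition of human DSH1 cells, measured with a cell viability readout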
Description: SANGER: Inhibition of human DSH1 cell growth in a cell viability assay.

HD-MY-Z = test system: HD-MY-Z;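 note: growth inhibition of HD-MY-Z cells, read out with a cell viability assay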
Description: SANGER: Inhibition of human HD-MY-Z cell growth in a cell viability assay.

TE-8 = test system: TE-8;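 note: growth inhibition of TE-8 cells, measured with a cell viability readout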
Description: SANGER: Inhibition of human TE-8 cell growth in a cell viability assay.

HCC1187 = test system: HCC1187;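 note: growth inhibition of HCC1187 cells, read out with a cell viability assay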
Description: SANGER: Inhibition of human HCC1187 cell growth in a cell viability assay.

KNS-81-FD = test system: KNS-81-FD;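 note: growth inhibition of KNS-81-FD cells, read out with a cell viability assay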
Description: SANGER: Inhibition of human KNS-81-FD cell growth in a cell viability assay.

BB30-HNC = test system: BB30-HNC;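 note: growth inhibition of the cultured cell line, read out by a cell viability assay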
Description: SANGER: Inhibition of human BB30-HNC cell growth in a cell viability assay.

SK-LMS-1 = test system: SK-LMS-1;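 note: growth inhibition of human SK-LMS-1 cells, read out with a cell viability assay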
Description: SANGER: Inhibition of human SK-LMS-1 cell growth in a cell viability assay.

LB2241-RCC = test system: LB2241-RCC;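 note: cell viability assay measuring how strongly the cultured human renal carcinoma line is prevented from growing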
Description: SANGER: Inhibition of human LB2241-RCC cell growth in a cell viability assay.

L-428 = test system: L-428
Description: SANGER: Inhibition of human L-428 cell growth in a cell viability assay.

Becker = test system: Becker;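 note: growth inhibition of Becker cells, read out with a cell viability assay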
Description: SANGER: Inhibition of human Becker cell growth in a cell viability assay.

NCI-H747 = test system: NCI-H747;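 note: growth inhibition of human NCI-H747 cells, read out by a cell viability assay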
Description: SANGER: Inhibition of human NCI-H747 cell growth in a cell viability assay.

HC-1 = test system: HC-1;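 note: growth inhibition of HC-1 cells measured by a cell viability assay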
Description: SANGER: Inhibition of human HC-1 cell growth in a cell viability assay.

TE-9 = test system: TE-9;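 note: cell growth inhibition, measured with a cell viability readout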
Description: SANGER: Inhibition of human TE-9 cell growth in a cell viability assay.

EM-2 = test system: EM-2;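 note: growth inhibition of EM-2 cells, read out with a cell viability assay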
Description: SANGER: Inhibition of human EM-2 cell growth in a cell viability assay.

KINGS-1 = test system: KINGS-1
Description: SANGER: Inhibition of human KINGS-1 cell growth in a cell viability assay.

NCI-H1355 = test system: NCI-H1355
Description: SANGER: Inhibition of human NCI-H1355 cell growth in a cell viability assay.

NCI-H720 = test system: NCI-H720
Description: SANGER: Inhibition of human NCI-H720 cell growth in a cell viability assay.

SJSA-1 = test system: SJSA-1
Description: SANGER: Inhibition of human SJSA-1 cell growth in a cell viability assay.

SNB-75 = test system: SNB-75
Description: SANGER: Inhibition of human SNB75 cell growth in a cell viability assay.

`Cc1ccc(NC(=O)c2cccc(C(C)(C)C#N)c2)cc1Nc1ccc2ncn(C)c(=O)c2c1` showed an IC50 (COLO-668) of over 4000 nM, an IC50 (CGTH-W-1) of 121 nM and an IC50 (MFM-223) of over 4000 nM. The IC50 (MC116) was over 4000 nM, the IC50 (NCI-H69) was over 4000 nM and the IC50 (NCI-H1395) was over 4000 nM. It also gave an IC50 (RKO) of 37.7 nM, an IC50 (HCC2218) of over 4000 nM and an IC50 (CTB-1) of over 4000 nM. For the same molecule, the IC50 (CAS-1) was over 4000 nM, the IC50 (A388) was over 4000 nM and the IC50 (DMS-114) was over 4000 nM. For the same molecule, the IC50 (NEC8) was over 4000 nM, the IC50 (Mo) was over 4000 nM and the IC50 (NB13) was over 4000 nM. The IC50 (TE-12) was 1310 nM, the IC50 (A101D) was 5.82 nM and the IC50 (HDLM-2) was over 4000 nM. It also gave an IC50 (NB10) of over 4000 nM, an IC50 (SK-N-DZ) of over 4000 nM and an IC50 (U-266) of over 4000 nM. The IC50 (HOP-62) was over 4000 nM, the IC50 (SF-126) was over 4000 nM and the IC50 (ALL-PO) was 1350 nM. The IC50 (NCI-H1650) was over 4000 nM, the IC50 (GB-1) was over 4000 nM and the IC50 (COLO-800) was over 4000 nM. It also gave an IC50 (GR-ST) of over 4000 nM, an IC50 (AM-38) of over 4000 nM and an IC50 (LS-1034) of over 4000 nM. The IC50 (RH-1) was over 4000 nM, the IC50 (LB1047-RCC) was over 4000 nM and the IC50 (KGN) was over 4000 nM. The IC50 (CTV-1) was 1200 nM, the IC50 (TGBC1TKB) was over 4000 nM and the IC50 (NCI-H226) was over 4000 nM. The IC50 (MSTO-211H) was 3950 nM, the IC50 (KNS-42) was over 4000 nM and the IC50 (SF-539) was over 4000 nM. For the same molecule, the IC50 (KY821) was over 4000 nM, the IC50 (NCI-H82) was over 4000 nM and the IC50 (COLO-320-HSR) was over 4000 nM. For the same molecule, the IC50 (LAMA-84) was 192 nM, the IC50 (ES1) was over 4000 nM and the IC50 (EOL1) was over 4000 nM. The IC50 (DSH1) was over 4000 nM, the IC50 (HD-MY-Z) was 2940 nM and the IC50 (TE-8) was over 4000 nM. The IC50 (HCC1187) was over 4000 nM, the IC50 (KNS-81-FD) was over 4000 nM and the IC50 (BB30-HNC) was 1960 nM. It also gave an IC50 (SK-LMS-1) of over 4000 nM, an IC50 (LB2241-RCC) of over 4000 nM and an IC50 (L-428) of over 4000 nM. It also gave an IC50 (Becker) of over 4000 nM, an IC50 (NCI-H747) of 506 nM and an IC50 (HC-1) of over 4000 nM. It also gave an IC50 (TE-9) of over 4000 nM, an IC50 (EM-2) of 196 nM and an IC50 (KINGS-1) of over 4000 nM. It also gave an IC50 (NCI-H1355) of over 4000 nM, an IC50 (NCI-H720) of over 4000 nM and an IC50 (SJSA-1) of 1430 nM. For the same molecule, the IC50 (SNB-75) was over 4000 nM.

In the case of `CCn1c(-c2nonc2N)nc2cnc(Oc3cccc(NC(=O)c4ccc(OCCN5CCOCC5)cc4)c3)cc21` [GSK-269962A], the IC50 (COLO-668) is reported as over 2500 nM, the IC50 (CGTH-W-1) is reported as over 2500 nM and the IC50 (MFM-223) is reported as over 2500 nM. The IC50 (MC116) was over 2500 nM, the IC50 (NCI-H69) was over 2500 nM and the IC50 (NCI-H1395) was over 2500 nM. The IC50 (RKO) was over 2500 nM, the IC50 (HCC2218) was over 2500 nM and the IC50 (CTB-1) was over 2500 nM. For the same molecule, the IC50 (CAS-1) was 847 nM, the IC50 (A388) was over 2500 nM and the IC50 (DMS-114) was over 2500 nM. For the same molecule, the IC50 (NEC8) was over 2500 nM, the IC50 (Mo) was over 2500 nM and the IC50 (NB13) was 2310 nM. It also gave an IC50 (TE-12) of over 2500 nM, an IC50 (A101D) of 1870 nM and an IC50 (HDLM-2) of over 2500 nM. For the same molecule, the IC50 (NB10) was 138 nM, the IC50 (SK-N-DZ) was over 2500 nM and the IC50 (U-266) was over 2500 nM. The IC50 (HOP-62) was over 2500 nM, the IC50 (SF-126) was over 2500 nM and the IC50 (ALL-PO) was over 2500 nM. It also gave an IC50 (NCI-H1650) of over 2500 nM, an IC50 (GB-1) of over 2500 nM and an IC50 (COLO-800) of over 2500 nM. For the same molecule, the IC50 (GR-ST) was over 2500 nM, the IC50 (AM-38) was over 2500 nM and the IC50 (LS-1034) was over 2500 nM. For the same molecule, the IC50 (RH-1) was over 2500 nM, the IC50 (LB1047-RCC) was over 2500 nM and the IC50 (KGN) was 567 nM. It also gave an IC50 (CTV-1) of over 2500 nM, an IC50 (TGBC1TKB) of over 2500 nM and an IC50 (NCI-H226) of over 2500 nM. For the same molecule, the IC50 (MSTO-211H) was over 2500 nM, the IC50 (KNS-42) was over 2500 nM and the IC50 (SF-539) was 1290 nM. It also gave an IC50 (KY821) of over 2500 nM, an IC50 (NCI-H82) of over 2500 nM and an IC50 (COLO-320-HSR) of over 2500 nM. For the same molecule, the IC50 (LAMA-84) was over 2500 nM, the IC50 (ES1) was over 2500 nM and the IC50 (EOL1) was over 2500 nM. For the same molecule, the IC50 (DSH1) was over 2500 nM, the IC50 (HD-MY-Z) was over 2500 nM and the IC50 (TE-8) was over 2500 nM. It also gave an IC50 (HCC1187) of over 2500 nM, an IC50 (KNS-81-FD) of over 2500 nM and an IC50 (BB30-HNC) of over 2500 nM. It also gave an IC50 (SK-LMS-1) of over 2500 nM, an IC50 (LB2241-RCC) of over 2500 nM and an IC50 (L-428) of over 2500 nM. The IC50 (Becker) was over 2500 nM, the IC50 (NCI-H747) was over 2500 nM and the IC50 (HC-1) was over 2500 nM. For the same molecule, the IC50 (TE-9) was over 2500 nM, the IC50 (EM-2) was 2460 nM and the IC50 (KINGS-1) was over 2500 nM. It also gave an IC50 (NCI-H1355) of over 2500 nM, an IC50 (NCI-H720) of 2450 nM and an IC50 (SJSA-1) of 1050 nM. It also gave an IC50 (SNB-75) of over 2500 nM.
